Experimental data reported in patent US12310963B2, “Pyrazole derivatives and use thereof” (Tarapeutics Science Inc., priority 2019, dated 2025).

What was measured:
[1] = system: pulmonary arterial hypertension (PAH); assay: Rat model of pulmonary arterial hypertension (PAH), monocrotaline-induced; format: in vivo; settings: 50 mg/kg by gavage, 28 days
Procedure: SCXK (SU) 2017-0001. These rats were fed with conventional pellet feeds (Jiangsu Xietong Bio. Co., Ltd.), and were raised in a clean animal room with 12h/12h light/dark cycle. The rats were fed with foods and drinking water on an ad libitum basis. The temperature was maintained at 20-26° C., and the relative humidity was 40-70%. 120 SD rats were divided into 24 cages with 5 rats per group. […] The animals were treated in strict accordance with animal ethics regulations throughout the experiment. According to the method described in “Pharmaceutical experimental animal models: Fabrication and application” and the Standard Operating Procedure for PAH Model Construction of Model Animal Center, rats were intraperitoneally injected with a solution of 1% monocrotaline (MCT, purchased from Sigma, U.S.A.) once at a dose of 35 mg/kg. On Day 7 after the first injection of MCT, MCT was injected again at a dose of 20 mg/kg. The rats in the normal control group were intraperitoneally injected with an equivalent amount of water as a blank solvent. The specific steps were as follows: After the rats in each of the cages were fasted for 8 hours, each of the rats was weighed and recorded for the basic body weight after fasting; based on the measured basic body weight for each of the rats, the amount of MCT required to be injected for each of the rats was calculated according to the modeling dose of 35 mg/kg; based on the amount of MCT required to be injected for each of the rats, the dose for injection of a 1% MCT solution was calculated; the rats were fixed in a holder and intraperitoneally injected with the 1% MCT solution at the calculated dose; the rats were returned to the cages for routine feeding after the injection. […] The blood gas analyzer was operated following the standard operation procedure. […] Each of the rats was administered by gavage once a day starting from the day of regrouping at Week 4. The rats in the negative control group were daily administered by gavage with an equal volume of methylcellulose as vehicle. The rats in each of the groups were administered by gavage for consecutive 4 weeks (i.e., 28 days). […] The rats were weighed after fasting overnight twice a week. The administration dosage was calculated based on the weighing results. […] After the rats were under anesthesia, the pulmonary arterial pressure and the right ventricular systolic pressure of rats were measured. […] The steps were as follows. A No. 3.5 umbilical vein catheter was connected to a system pressure transducer. A formulated solution of […] sodium (purchased from Sangon) was filled into the transducer and the catheter, and bubbles were discharged. The anesthetized rat was placed on a surgical anatomical plate that is adjustable in its temperature. The temperature of the plate was adjusted to be maintained at about 37° C. The rat was fixed in supine position. The neck skin was cut with scissors to the edge of the clavicle, followed by blunt dissection of subcutaneous tissues and muscles, exposing the right external jugular vein. The adipose tissue on the surface was removed with ophthalmic surgical scissors. The external jugular vein was ligated at the […] surgical thread, and a loose knot was made at the proximal end for reserve. The external jugular vein was gently lifted with ophthalmic tweezers and cut with ophthalmic scissors to make a “V” opening. The catheter was quickly inserted, and the loose knot at the proximal end was tightened slightly to prevent bleeding. […] The catheter was further inserted slowly forward, and entered into the pulmonary artery at about 5 cm. […] The blood was transferred into an anticoagulation tube, and loaded in a blood gas analyzer to determine the indexes of partial pressure of oxygen (pO2), partial pressure of carbon dioxide (pCO2) and blood oxygen saturation (SaO2) in the blood.

[2] = system: BaF3-tel-PDGFRα (stably expressing PDGFRα kinase); assay: Growth of BaF3-tel-PDGFRα cells, Cell Titer-Glo, 72 h; format: cell-based, mouse
From the text: (§1) In this example, mouse primary B cell BaF3 (purchased from ATCC, U.S.A.) was used. In addition, in this example, mouse BaF3-tel-PDGFRα (stably expressing PDGFRα kinase), mouse BaF3-tel-PDGFRβ (stably expressing PDGFRβ kinase), BaF3-P210 (stably expressing ABL kinase), BaF3-P210-T315I (stably expressing ABL-T315I kinase), BaF3-FL-BRAF-V600E (stably expressing BRAF-V600E kinase), BaF3-TEL-cKIT (stably expressing cKIT kinase), BaF3-TEL-VEGFR2 (stably expressing VEGFR2 kinase), BaF3-TEL-FGFR2 (stably expressing FGFR2 kinase) were also used. The above-mentioned cell trains were all constructed in our laboratory by the method as follows. The sequences of human BCR-ABL (P210 or P210/T315I mutated), full-length BRAF-V600E, cKIT, VEGFR2, FGFR2, PDGFRα, PDGFRβ kinase region were amplified respectively via PCR, and inserted respectively into a MSCV-Puro vector (purchased from Clontech) having a N-terminal TEL fragment and/or NPM fragment and/or TPR fragment, and stably transferred into mouse BaF3 cells by the retroviral method, and the growth factor IL-3 was removed. Eventually, cell lines which are transferred into proteins depending on PDGFRα, PDGFRβ were obtained.
(§2) In this example, solutions of the test compound at different concentrations (0.000508 μM, 0.00152 μM, 0.00457 μM, 0.0137 μM, 0.0411 μM, 0.123 μM, 0.370 μM, 1.11 μM, 3.33 μM, 10 μM) were added to the above cells. The cells were incubated for 72 hours.

[3] = system: BaF3-tel-PDGFRβ (stably expressing PDGFRβ kinase); assay: Growth of BaF3-tel-PDGFRβ cells, Cell Titer-Glo, 72 h; format: cell-based, mouse
From the text: as §1, §2

BaF3 = assay: Growth of parental BaF3 cells, Cell Titer-Glo, 72 h; format: cell-based; settings: Mus musculus
From the text: as §1, §2

SMILES | GI50 [2] [nM] | GI50 [3] [nM] | RVI (right ventricular hypertrophy index) decrease as compared with the negative control group [1] [%] | GI50 (BaF3) [nM]
COc1ccccc1Oc1c(NS(=O)(=O)c2ccc(C(C)(C)C)cc2)nc(-c2ncccn2)nc1OCCO [bosentan, reference compound] | – | – | 15.7 | –
Cc1ccc(NC(=O)c2cccc(C(F)(F)F)n2)cc1-n1cc(-c2cnccc2OC2COC2)cn1 [Compound 6, N-(4-methyl-3-(4-(4-(oxetan-3-yloxy)pyridin-3-yl)-1H-pyrazol-1-yl)phenyl)-6-(trifluoromethyl)picolinamide] | < 0.3 | 1 | – | > 10000
Cc1ccc(NC(=O)c2cc(C(F)(F)F)ccn2)cc1-n1cc(-c2cncc(N3CCN(C)CC3)c2)nn1 [Compound 21, N-(4-methyl-3-(4-(5-(4-methylpiperazin-1-yl)pyridin-3-yl)-1H-1,2,3-triazol-1-yl)phenyl)-4-(trifluoromethyl)picolinamide] | < 10 | < 10 | – | 2840
Cc1ccc(NC(=O)c2ccnc(C(F)(F)F)c2)cc1-n1cc(-c2cncc(N3CCN(C)CC3)c2)cn1 [Compound 2, N-(4-methyl-3-(4-(5-(4-methylpiperazin-1-yl)pyridin-3-yl)-1H-pyrazol-1-yl)phenyl)-2-(trifluoromethyl)isonicotinamide] | 2.8 | 40 | – | 9290
Cc1ccc(NC(=O)c2cncc(C(F)(F)F)c2)cc1-n1cc(-c2cncc(N3CCN(C)CC3)c2)nn1 [Compound 20, N-(4-methyl-3-(4-(5-(4-methylpiperazin-1-yl)pyridin-3-yl)-1H-1,2,3-triazol-1-yl)phenyl)-5-(trifluoromethyl)nicotinamide] | < 10 | < 10 | – | 5070
CN1CCN(c2cncc(-c3cn(-c4cc(NC(=O)c5cccc(Cl)n5)ccc4F)nn3)c2)CC1 [Compound 28, 6-chloro-N-(4-fluoro-3-(4-(5-(4-methylpiperazin-1-yl)pyridin-3-yl)-1H-1,2,3-triazol-1-yl)phenyl)picolinamide] | < 10 | < 10 | – | 3900
Cc1ccc(NC(=O)c2ccnc(C(F)(F)F)c2)cc1-n1cc(-c2cncc(N3CCN(C)CC3)c2)nn1 [Compound 19, N-(4-methyl-3-(4-(5-(4-methylpiperazin-1-yl)pyridin-3-yl)-1H-1,2,3-triazol-1-yl)phenyl)-2-(trifluoromethyl)isonicotinamide] | < 10 | < 10 | – | > 10000
Cc1ccc(NC(=O)c2ccnc(C(F)(F)F)c2)cc1-n1cc(-c2cncc(OC3COC3)c2)cn1 [Compound 7, N-(4-methyl-3-(4-(5-(oxetan-3-yloxy)pyridin-3-yl)-1H-pyrazol-1-yl)phenyl)-2-(trifluoromethyl)isonicotinamide] | < 0.3 | 1 | – | > 10000
Cc1ccc(NC(=O)c2cc(C(F)(F)F)ccn2)cc1-n1cc(-c2cncc(N3CCN(C)CC3)c2)cn1 [Compound 15, N-(4-methyl-3-(4-(5-(4-methylpiperazin-1-yl)pyridin-3-yl)-1H-pyrazol-1-yl)phenyl)-4-(trifluoromethyl)picolinamide] | < 1.5 | < 1.5 | – | 3900

Second part, led by results:

GI50 [2] [nM] | GI50 [3] [nM] | SMILES | RVI (right ventricular hypertrophy index) decrease as compared with the negative control group [1] [%] | GI50 (BaF3) [nM]
< 10 | < 10 | Cc1ccc(NC(=O)c2ccnc(C(F)(F)F)c2)cc1-n1cc(-c2cncc(N3CC4(COC4)C3)c2)nn1 [Compound 39, N-(3-(4-(5-(2-oxa-6-aza-spiro[3.3]hept-6-yl]pyridin-3-yl)-1H-1,2,3-triazol-1-yl)-4-methylphenyl)-2-(trifluoromethyl)isonicotinamide] | – | > 10000
< 10 | < 10 | Cc1ccc(NC(=O)c2cccc(C(F)(F)F)n2)cc1-n1cc(-c2cncc(N3CC4(COC4)C3)c2)nn1 [Compound 38, N-(3-(4-(5-(2-oxa-6-aza-spiro[3.3]hept-6-yl]pyridin-3-yl)-1H-1,2,3-triazol-1-yl)-4-methylphenyl)-6-(trifluoromethyl)picolinamide] | – | > 10000
< 10 | < 10 | Cc1ccc(NC(=O)c2cccc(F)n2)cc1-n1cc(-c2cncc(N3CC4(COC4)C3)c2)cn1 [Compound 37, N-(3-(4-(5-(2-oxa-6-aza-spiro[3.3]hept-6-yl]pyridin-3-yl)-1H-pyrazol-1-yl)-4-methylphenyl)-6-fluoropicolinamide] | – | 9850
< 10 | < 10 | Cc1ccc(NC(=O)c2ccnc(C(F)(F)F)c2)cc1-n1cc(-c2cncc(N3CC4(COC4)C3)c2)cn1 [Compound 33, N-(3-(4-(5-(2-oxa-6-aza-spiro[3.3]hept-6-yl]pyridin-3-yl)-1H-pyrazol-1-yl)-4-methylphenyl)-2-(trifluoromethyl)isonicotinamide] | – | 6490
